Here are results for five compounds from patent publication US20240180859A1, “COMPOSITIONS AND METHODS FOR IMMUNE-MEDIATED INFLAMMATORY DISEASES” (Thetis Pharmaceuticals LLC, priority 2022, published 2024).

A short description of series [1]: PK studies of RvE1-Na (subcutaneous, IV, oral), plasma and lung tissue. The series is classed as in vivo, Balb/c mice. To be noted: 0.25-24 hours. How it is done: (§1) In the subcutaneous PK study, sixty-nine (69) C57BL/6J mice were administered 100 or 300 ug/kg doses of RvE1-Mg-Lys via subcutaneous injection. Mice were sacrificed and plasma was drawn at the following timepoints: baseline, 5, 15, 30 min, 1, 2, 4 and 8 hours (n=5 mice per timepoint). In the IV and oral PK studies, one-hundred eighty (180) Balb/c mice were administered RvE1-Na at 1 or 10 mg/kg via subcutaneous injection, IV injection, oral gavage (n=6 mice per timepoint). Plasma and lung tissue were assayed at the following timepoints: 0.25, 0.5, 1, 2, 6, 10 and 24 hours. […] Without being bound by any theory, the surprising efficacy of LTD dosing of resolvins in the cancer model systems described here may be the result of durable effects on the tumor microenvironment including changes in immune cell phenotype, vascularization, stromal phenotype, and antigen presentation, as well as durable effects on the T-cell compartment such as T-cell priming and increased tumor-infiltrating lymphocytes.

Series [2] deals with polymorphonuclear leukocyte (PMN) recruitment. The conditions noted are these: equimolar dose; cited from earlier work.
Series [3] in a line: Subcutaneous PK study of RvE1-Mg-Lys. To be noted: 100 or 300 ug/kg subcutaneous injection; baseline to 8 hours. The series is classed as in vivo, C57BL/6J mice. How it is done:
as §1

The next series relates to Panc2-H7 cells. The experiment in a line: Panc2-H7 model of pancreatic cancer, subcutaneous tumors. The series is classed as in vivo, C57BL/6J male mice. The conditions noted are these: SC. On the procedure: (§2) A representative compound of Formula IV, bis RvE1 magnesium di-lysinate (Compound 1), was tested for efficacy in several preclinical mouse models including the Panc2-H7 model of pancreatic cancer, and the MC38 model of colorectal cancer. These models are well established, highly tumorigenic syngeneic models in which murine cancer cell lines are injected subcutaneously (SC) into the dorsum of C57BL/6J mice. If left untreated, these tumors grow rapidly and lead to death or euthanasia, per protocol. As detailed below in Examples 1-4 and the accompanying figures, bis RvE1 Mg-di-lysinate (Compound 1) was unexpectedly effective as an anti-cancer agent in each of these model systems when administered in a less than daily (LTD) dosing regimen. […] Without being bound by any theory, the surprising efficacy of LTD dosing of resolvins in the model systems described here may be the result of durable effects on the inflammatory phenotype of the tumor microenvironment including changes in immune cell phenotype, vascularization, stromal phenotype, and antigen presentation, as well as durable effects on the T-cell compartment such as T-cell priming and increased tumor-infiltrating lymphocytes.
Based on the previous findings in the MC38 colorectal cancer model with less than daily (LTD) dosing, a study in the Panc2-H7 model was conducted to assess the efficacy of LTD dosing of bis RvE1 Mg-di-lysinate in a different tumor model. A total of forty (40) C57BL/6J male mice were injected subcutaneously with 1×10e6 living Panc2-H7 cells. Once tumors reached 160-320 mm^3 in size, the mice were randomized (n=8 per group) to treatment with vehicle or SC injection with bis RvE1 Mg-di-lysinate at 30 ug/kg and 300 ug/kg (QD, Q7D).

For a further series, the system named is subcutaneous KPC tumors. The series is described as follows: RNAseq cell enrichment analysis of tumor samples. In kind it is in vivo, mice. The conditions noted are these: Q6D treatment, Day 26, compared to placebo. On the procedure:
RNAseq analysis was performed on tumor samples from mice with subcutaneous KPC tumors sacrificed on Day 26 following treatment (Q6D) with bis RvE1 Mg-di-lysinate (Compound 1) compared to placebo. […] Darker color indicates increased gene expression, for various immune cells and other cells, as listed across the top of the heatmap. The boxed cells shown in FIG. 4 indicate an increase in markers of monocytes and DC cell subset (cDCs, pDCs, and iDCs) and markers of NK, CD8+ T cells, Th1 cells, and memory T cells (CD8+ and CD4+) with Compound 1 treatment. […] Namely, these unexpected results may be due to durable effects on the tumor microenvironment including changes in immune cell phenotype and the T-cell compartment such as T-cell priming and increased tumor-infiltrating lymphocytes.

In a further series the test system is MC-38 cells. The experiment in a line: MC38 model of colorectal cancer, subcutaneous tumors. In kind it is in vivo, C57BL/6J male mice. The conditions noted are these: 300 ug/kg, SC, P<0.05 vs placebo. How it is done:
as §2, with “lymphocytes. […]” for “lymphocytes.”

For series [4], the system named is CD4+ and CD8+ cells in the liver. To be noted: concanavalin A-induced murine model; cited from earlier work.

As for `CC[C@@H](O)/C=C/C=C\C[C@@H](O)/C=C/C=C/C=C\[C@@H](O)CCCC(=O)[O-].[Na+]` [RvE1-Na], the “plasma and lung tissue levels of RvE1 over time” value in series [1] (1 or 10 mg/kg IV injection), in series [1] (1 or 10 mg/kg oral gavage) and in series [1] (1 or 10 mg/kg subcutaneous injection) was “rapid depletion” throughout.
Turning to `CCC(=O)/C=C/C=C\C[C@@H](O)/C=C/C=C/C=C\[C@@H](O)CCCC(=O)O` [Compound 18-oxo-RvE1, 18-oxo-RvE1], in series [2], the “activity in zymosan-induced peritonitis (PMN recruitment)” value is “devoid of activity”.
As to `CC[C@@H](O)/C=C/C=C\C[C@@H](O)/C=C/C=C/C=C\[C@@H](O)CCCC(=O)O` [Compound 1, bis RvE1 Mg-di-lysinate], the “plasma levels of RvE1 over time” value in series [3] is reported as “rapid depletion”. Besides, the “tumor volume (Day 20 vs Day 0), inhibition relative to placebo control” value is listed as “demonstrated inhibition relative to placebo control” with Panc2-H7 cells (30 ug/kg, Q7D); “demonstrated inhibition relative to placebo control” in the series with Panc2-H7 cells (30 ug/kg, QD); “greatest inhibition” in the series with Panc2-H7 cells (300 ug/kg, Q7D, P<0.05 vs placebo control); “demonstrated inhibition relative to placebo control” with Panc2-H7 cells (300 ug/kg, QD). Moreover, the “markers of NK, CD8+ T cells, Th1 cells, and memory T cells (CD8+ and CD4+), gene expression” value with subcutaneous KPC tumors was “increase”. In the series on subcutaneous KPC tumors, the “markers of monocytes and DC cell subset (cDCs, pDCs, and iDCs), gene expression” value is “increase”. Also, the “tumor volume (Day 15 vs Day 0), efficacy as a single agent vs placebo” value with MC-38 cells (Q3D) and in the series with MC-38 cells (QD) was “effective as a single agent” in each case.
As for `CC/C=C\C[C@H](O)/C=C/C=C\C=C\C=C\[C@@H](O)[C@@H](O)C/C=C\CCC(=O)O` [RvD1, 7S,8R,17S-trihydroxy-4Z,9E,11E,13Z,15E,19Z-docosahexaenoic acid], the “levels of CD4+ and CD8+ cells in the liver” value in series [4] was “markedly downregulated”.
Regarding `CC[C@@H](O)/C=C/C=C\C[C@@H](O)/C=C/C=C/C=C\[C@@H](O)CCCC(=O)O` [RvE1, 5S,12R,18R-trihydroxy-6Z,8E,10E,14Z,16E-eicosapentaenoic acid], the “activity in zymosan-induced peritonitis (PMN recruitment)” value in series [2] was “potently reduced”. The “levels of CD4+ and CD8+ cells in the liver” value in series [4] is reported as “markedly downregulated”.
